The text below walks through data of patent US7265120B2, “Pyrazine derivatives and pharmaceutical use thereof” (Astellas Pharma Inc., priority 2004, dated 2007).

For `Cn1nc(-c2nc(NCCc3ccccn3)c(N)nc2-c2ccccc2)ccc1=O` [Example 127, 6-(5-amino-3-phenyl-6-{[2-(2-pyridyl)ethyl]amino}-2-pyrazinyl)-2-methyl-3(2H)-pyridazinone], the melting point was in the range of 224 to 227 °C.
The compound `CC(C)n1nc(-c2nc(OCc3ccccc3)c(N)nc2-c2ccccc2)ccc1=O` [Example 162, 6-[5-amino-6-(benzyloxy)-3-phenyl-2-pyrazinyl]-2-isopropyl-3(2H)-pyridazinone] returned a melting point of 118 to 120 °C.
For `CC(C)n1nc(-c2nc(C(N)=O)c(N)nc2-c2cccs2)ccc1=O` [Example 191, 3-amino-6-(1-isopropyl-6-oxo-1,6-dihydro-3-pyridazinyl)-5-(2-thienyl)-2-pyrazinecarboxamide], the melting point lay within 238 to 240 °C.
With `CC(C)n1nc(-c2nc(-n3cccn3)c(N)nc2-c2ccccc2)ccc1=O` [Example 149, 6-[5-amino-3-phenyl-6-(1H-pyrazol-1-yl)-2-pyrazinyl]-2-isopropyl-3(2H)-pyridazinone], the melting point fell in the range of 210 to 212 °C.
In turn, `CC(C)n1nc(-c2nc(N3CCNCC3)c(N)nc2-c2ccccc2)ccc1=O` [Example 112, 6-[5-amino-3-phenyl-6-(1-piperazinyl)-2-pyrazinyl]-2-isopropyl-3(2H)-pyridazinone] had a melting point of 157 to 159 °C.
The value for `Cn1nc(-c2nc(N3CCN4CCCC4C3)c(N)nc2-c2ccccc2)ccc1=O` (stereo not shown) [Example 131, 6-[5-amino-6-(hexahydropyrrolo[1,2-a]pyrazin-2(1H)-yl)-3-phenyl-2-pyrazinyl]-2-methyl-3(2H)-pyridazinone] was 177 to 179 °C.
Regarding `CC(C)n1nc(-c2nc(OCCOCc3ccccc3)c(N)nc2-c2ccccc2)ccc1=O` [Example 168, 6-{5-amino-6-[2-(benzyloxy)ethoxy]-3-phenyl-2-pyrazinyl}-2-isopropyl-3(2H)-pyridazinone], the melting point lay in the range of 120 to 122 °C.
`CC(C)n1nc(-c2nc(C#C[Si](C)(C)C)c(N)nc2-c2ccccc2)ccc1=O` registered a melting point of 213 to 215 °C.
Turning to `Cn1nc(-c2nc(OC3CCN(Cc4ccccc4)CC3)c(N)nc2-c2ccccc2)ccc1=O` [Example 185, 6-{5-amino-6-[(1-benzyl-4-piperidinyl)oxy]-3-phenyl-2-pyrazinyl}-2-methyl-3(2H)-pyridazinone], the melting point lay within 147 to 149 °C.
Compound `Cn1nc(-c2nc([S+](C)[O-])c(N)nc2-c2ccccc2)ccc1=O` (stereo not shown) [Example 62, 6-[5-amino-6-(methylsulfinyl)-3-phenyl-2-pyrazinyl]-2-methyl-3(2H)-pyridazinone] showed a melting point of 209 to 210.5 °C.
`Cn1nc(-c2nc(N3CCN(c4ccccc4)CC3)c(N)nc2-c2ccccc2)ccc1=O` [Example 130, 6-[5-amino-3-phenyl-6-(4-phenyl-1-piperazinyl)-2-pyrazinyl]-2-methyl-3(2H)-pyridazinone] came in with a melting point of 155 to 157 °C.
`CC(C)n1nc(-c2nc(-c3cn[nH]c3)c(N)nc2-c2ccccc2)ccc1=O` [Example 90, 6-[5-amino-3-phenyl-6-(1H-pyrazol-4-yl)-2-pyrazinyl]-2-isopropyl-3(2H)-pyridazinone] showed a melting point of more than 250 °C.
Take `Cn1nc(-c2nc(Br)c(N)nc2-c2ccccc2)ccc1=O` [Example 60, 6-(5-amino-6-bromo-3-phenyl-2-pyrazinyl)-2-methyl-3(2H)-pyridazinone]: the melting point lay within 220 to 222 °C.
With `Cn1nc(-c2nc(C#N)c(C#N)nc2-c2ccccc2)ccc1=O` [Example 15, 5-(1-Methyl-6-oxo-1,6-dihydro-3-pyridazinyl)-6-phenyl-2,3-pyrazinedicarbonitrile], the melting point lay within 210 to 212 °C.
For `CC(C)n1nc(-c2nc(C#N)c(N=CN(C)C)nc2-c2ccccc2Br)ccc1=O` [Example 188, N′-[6-(2-bromophenyl)-3-cyano-5-(1-isopropyl-6-oxo-1,6-dihydro-3-pyridazinyl)-2-pyrazinyl]-N,N-dimethylimidoformamide], the melting point lay within 197 to 199 °C.
In turn, `CC(C)n1nc(-c2nc(C3=CCCN(C)C3)c(N)nc2-c2ccccc2)ccc1=O` [Example 92, 6-[5-amino-6-(1-methyl-1,2,5,6-tetrahydro-3-pyridyl)-3-phenyl-2-pyrazinyl]-2-isopropyl-3(2H)-pyridazinone] came in with a melting point of 191 to 193 °C.
Next, `COc1ccc(CNc2nc(-c3ccc(=O)n(C)n3)c(-c3ccccc3)nc2N)cc1` [Example 145, 6-[5-amino-6-[(4-methoxybenzyl)amino]-3-phenyl-2-pyrazinyl}-2-methyl-3(2H)-pyridazinone]: more than 250 °C.
Next, `CC(C)Oc1nc(-c2ccc(=O)n(C(C)C)n2)c(-c2ccccc2)nc1N` [Example 160, 6-(5-amino-6-isopropoxy-3-phenyl-2-pyrazinyl)-2-isopropyl-3(2H)-pyridazinone]: 198 to 200 °C; `COCCOc1nc(-c2ccc(=O)n(C(C)C)n2)c(-c2ccccc2)nc1N` [Example 166, 6-[5-amino-6-(2-methoxyethoxy)-3-phenyl-2-pyrazinyl]-2-isopropyl-3(2H)-pyridazinone]: 128 to 130 °C; `Cn1nc(-c2nc(-n3cnc4ccccc43)c(N)nc2-c2ccccc2)ccc1=O` [Example 156, 6-[5-amino-6-(1H-benzimidazol-1-yl)-3-phenyl-2-pyrazinyl]-2-methyl-3(2H)-pyridazinone]: more than 250 °C.
Next, `Cn1nc(-c2nc(NCc3ccccn3)c(N)nc2-c2ccccc2)ccc1=O` [Example 146, 6-{5-amino-3-phenyl-6-[(2-pyridylmethyl)amino]-2-pyrazinyl}-2-methyl-3(2H)-pyridazinone]: more than 250 °C; `CC(C)n1nc(-c2nc(N3CCN(c4ccccc4)CC3)c(N)nc2-c2ccccc2)ccc1=O` [Example 115, 6-[5-amino-3-phenyl-6-(4-phenyl-1-piperazinyl)-2-pyrazinyl]-2-isopropyl-3(2H)-pyridazinone]: 193 to 195 °C.
Compound `CC(C)n1nc(-c2nc(/C=C/c3ccccc3)c(N)nc2-c2ccccc2)ccc1=O` [Example 87, 6-{5-amino-3-phenyl-6-[(E)-2-phenylvinyl]-2-pyrazinyl}-2-isopropyl-3(2H)-pyridazinone] showed a melting point of 244.5 to 245 °C.
Compound `CC(C)n1nc(-c2nc(OCCCc3ccccc3)c(N)nc2-c2ccccc2)ccc1=O` [Example 175, 6-[5-amino-3-phenyl-6-(3-phenylpropoxy)-2-pyrazinyl]-2-isopropyl-3(2H)-pyridazinone] had a melting point of 105 to 106.5 °C.
For `CC(C)n1nc(-c2nc(N3CCC(NS(C)(=O)=O)CC3)c(N)nc2-c2ccccc2)ccc1=O` [Example 111, N-{1-[3-amino-6-(1-isopropyl-6-oxo-1,6-dihydro-3-pyridazinyl)-5-phenyl-2-pyrazinyl]-4-piperidinyl}methanesulfonamide], the melting point lay in the range of 220 to 222 °C.
The value for `CC(C)n1nc(-c2nc(C#N)c(N)nc2-c2ccccc2)ccc1=O` [Example 6, 3-amino-6-(1-isopropyl-6-oxo-1,6-dihydro-3-pyridazinyl)-5-phenyl-2-pyrazinecarbonitrile] was 231 to 233 °C.
Compound `CC(C)n1nc(-c2nc(-c3ccco3)c(N)nc2-c2ccccc2)ccc1=O` [Example 88, 6-[5-amino-6-(2-furyl)-3-phenyl-2-pyrazinyl]-2-isopropyl-3(2H)-pyridazinone] returned a melting point of 211 to 213 °C.
With `CCn1nc(-c2nc(C(=O)O)c(NCc3ccc(OC)cc3)nc2-c2ccccc2)ccc1=O` [Example 57, 6-(1-ethyl-6-oxo-1,6-dihydro-3-pyridazinyl)-3-[(4-methoxybenzyl)amino]-5-phenyl-2-pyrazinecarboxylic acid], the melting point is more than 250 °C.
In turn, `CC(C)n1nc(-c2nc(OCCN(C)C)c(N)nc2-c2ccccc2)ccc1=O` [Example 170, 6-{5-amino-6-[2-(dimethylamino)ethoxy]-3-phenyl-2-pyrazinyl}-2-isopropyl-3(2H)-pyridazinone] displayed a melting point of 136 to 137.5 °C.
`CCn1nc(-c2ncc(N)nc2-c2ccccc2)ccc1=O` [Example 59, 6-(5-amino-3-phenyl-2-pyrazinyl)-2-ethyl-3(2H)-pyridazinone] showed a melting point of 227 to 229 °C.
Next, `CCn1nc(-c2nc(C(N)=O)c(N)nc2-c2ccccc2)ccc1=O` [Example 14, 3-Amino-6-(1-ethyl-6-oxo-1,6-dihydro-3-pyridazinyl)-5-phenyl-2-pyrazinecarboxamide]: more than 250 °C; `Cn1nc(-c2nc(OCCc3ccccc3)c(N)nc2-c2ccccc2)ccc1=O` [Example 187, 6-[5-amino-3-phenyl-6-(2-phenylethoxy)-2-pyrazinyl]-2-methyl-3(2H)-pyridazinone]: 156 to 159 °C; `Cn1nc(-c2nc(-c3ccco3)c(N)nc2-c2ccccc2)ccc1=O` [Example 89, 6-[5-amino-6-(2-furyl)-3-phenyl-2-pyrazinyl]-2-methyl-3(2H)-pyridazinone]: 186 to 188 °C.
Next, `COc1ccc(-c2nc(-c3ccc(=O)n(C(C)C)n3)c(-c3ccccc3)nc2N)cn1` [Example 83, 6-[5-amino-6-(6-methoxy-3-pyridyl)-3-phenyl-2-pyrazinyl]-2-isopropyl-3(2H)-pyridazinone]: 230 to 232.5 °C; `CC(C)n1nc(-c2nc(-c3cccnc3)c(N)nc2-c2ccccc2)ccc1=O` [Example 84, 6-[5-amino-3-phenyl-6-(3-pyridyl)-2-pyrazinyl]-2-isopropyl-3(2H)-pyridazinone]: 224 to 225.5 °C.
The value for `CC(C)n1nc(-c2nc(NC3CCCCC3)c(N)nc2-c2ccccc2)ccc1=O` [Example 137, 6-[5-amino-6-(cyclohexylamino)-3-phenyl-2-pyrazinyl]-2-isopropyl-3(2H)-pyridazinone] was 227 to 228.5 °C; that for `CC(C)n1nc(-c2nc([S+](C)[O-])c(N)nc2-c2ccccc2)ccc1=O` (stereo not shown) [Example 55, 6-[5-amino-6-(methylsulfinyl)-3-phenyl-2-pyrazinyl]-2-isopropyl-3(2H)-pyridazinone] was 225 to 227 °C.
